According to article PMC12213745, “Compounds from Cyclocarya paliurus leaves inhibit binary division of methicillin-resistant Staphylococcus aureus by disrupting FtsZ dynamic” (Frontiers in Microbiology, 2025):
Values after ≈ are worked out from the molar mass of the structure shown. Where two headings read alike, the source gives them in different places.

Columns and labels:
S. aureus ATCC25923 = test: SEM analysis, cell long axis; format: cell-based, Staphylococcus aureus; settings: 2 × MIC, 2 h, mean ± SD, PBS control 0.52 ± 0.05
Procedure: Scanning electron microscopy (SEM) was used to observe the morphological changes in bacterial cells treated with the isolated compounds. S. aureus ATCC 25923 and MRSA-4 were grown in MHB to mid-log phase (OD600 = 0.4–0.6) as previously described. The bacteria cultures were treated with AA, MA, or UA at 2 × MIC for 2 h at 37°C with shaking at 150 rpm. Untreated cultures (PBS group) served as the growth control. After incubation, bacterial cells were harvested by centrifugation and washed three times with PBS (pH 7.2). Coverslips (8 mm diameter) were cleaned with absolute ethanol under ultrasonication, air-dried, immersed in 0.1% (w/v) chitosan solution (dissolved in 1% acetic acid) for 5 s, and air-dried again at room temperature ([Su et al., 2022]). A 25 μL aliquot of the washed bacterial suspension was added to each coverslip and allowed to adhere for 1 h at room temperature. Adhered cells were fixed with 1 mL of 2.5% (v/v) glutaraldehyde at 4°C overnight. Fixed samples were rinsed 2–3 times with PBS (5 min per rinse), then dehydrated through a graded ethanol series: 50, 70, and 90% ethanol (each once for 5 min), followed by 100% ethanol (three times for 5 min each). After dehydration, samples were air-dried overnight at room temperature. SEM imaging was performed using an EVO 10 scanning electron microscope (Zeiss, Jena, Germany). Cell long-axis statistical analysis was conducted using ImageJ software (Version 1.42q, National Institutes of Health, MD, USA).
Having established the antibacterial activity of AA, MA, and UA, we next examined their effects on bacterial morphology. We employed SEM to examine the alterations induced by these compounds in S. aureus ATCC25923 and MRSA-4. Bacterial cultures were treated with AA, MA, or UA at 2 × MIC for 2 h, while untreated (PBS group) cultures served as negative controls. […] In PBS groups, both S. aureus ATCC25923 and MRSA-4 maintained typical spherical morphology with smooth and intact surfaces.

MRSA-4 [1] = test: MIC, broth microdilution (CLSI); format: cell-based, Methicillin-resistant S. aureus; settings: Staphylococcus aureus
Excerpt: Staphylococcus aureus ATCC25923 and Escherichia coli ATCC25922 were obtained from the American Type Culture Collection (ATCC, Manassas, VA, USA). The Methicillin-resistant S. aureus (MRSA) clinical isolate MRSA-4, previously confirmed as mecA-positive and characterized for its antibiotic resistance profile ([Sun et al., 2023]), was used in this study. Staphylococcus epidermidis (GDMCC 1.143), Enterococcus faecalis (GDMCC 1.164), and Salmonella enterica subsp. enterica (GDMCC 1.1114) were obtained from the Guangdong Microbial Culture Collection Center (GDMCC, Guangzhou, China). The Pseudomonas aeruginosa PA14 strain was kindly provided by Professor Min Wu (Southwest Medical University, China). All bacterial strains were routinely cultured in Mueller-Hinton broth (MHB) or Luria-Bertani (LB) broth medium at 37°C with shaking at 200 rpm. Vancomycin was purchased from Solarbio Science & Technology Co., Ltd. (Beijing, China), and oxacillin was obtained from Taiji Group Hengsheng Pharmaceutical Co., Ltd. (Chengdu, China). The polyclonal rabbit primary anti-body to FtsZ was purchased from Abcam PLC (Cambridge, UK). Alexa488-conjugated goat anti-rabbit IgG was purchased from ZSGB-BIO Biotechnology (Beijing, China). DAPI staining solution was purchased from Beyotime Biotechnology (Shanghai, China).
The minimum inhibitory concentrations (MICs) of the test compounds (AA, MA, and UA) were determined using the standard broth microdilution method in accordance with the Clinical and Laboratory Standards Institute (CLSI) guidelines ([Humphries et al., 2021]). Bacteria were cultured in MHB or LB broth at 37°C with shaking (200 rpm) to the logarithmic phase, then diluted to a final density of 1 × 10^6 CFU/mL. Test compounds (dissolved in DMSO) and positive controls (vancomycin and oxacillin) were diluted in MHB and serially twofold diluted in 96-well plates. Each well was inoculated with 100 μL of bacterial suspension (1 × 10^6 CFU/mL), yielding a final bacterial density of 5 × 10^5 CFU/mL and a total volume of 200 μL. The final concentrations tested were 128 to 1 μg/mL for AA, MA, and UA; 16 to 0.5 μg/mL for vancomycin; and 64 to 0.0625 μg/mL for oxacillin. DMSO was used as a solvent control. Plates were incubated statically at 37°C for 18–24 h. After incubation, the OD600 was measured using a microplate reader (SpectraMax i3x, Molecular Devices, CA, USA). The MIC was defined as the lowest compound concentration that caused ≥ 90% inhibition of bacterial growth compared to the drug-free growth control. All tests were performed in three independent biological replicates.
Following the isolation and identification of AA, MA, and UA from ECPL, we evaluated their antibacterial activity and spectrum. The MICs of the compounds were determined against MRSA-4, S. aureus ATCC25923, S. epidermidis, and E. faecalis (Gram-positive), as well as P. aeruginosa PA14, E. coli ATCC25922, and S. enterica subsp. Enterica (Gram-negative) using the standard broth microdilution method in accordance with CLSI guidelines ([Humphries et al., 2021]).

MRSA-4 [2] = test: TEM analysis of septum formation; format: cell-based, Methicillin-resistant S. aureus; settings: 1 × MIC, 4 h
Procedure: MRSA-4 was cultured in MHB to mid-log phase as described above. The cultures were then treated with AA, MA, or UA (at 1 × MIC) or with an equal volume of PBS (negative control) for 4 h at 37°C. After treatment, bacterial suspensions were collected by centrifugation at 13,000 × g for 3 min, and the resulting pellets were washed with PBS. Pellets were fixed in 2.5% glutaraldehyde prepared in 0.1 M cacodylate buffer (pH 7.2). Following fixation, samples were dehydrated in a graded ethanol series (30 to 100%), with 100% ethanol replaced three times. Samples were infiltrated with acetone/Epon-812 resin mixtures at ratios of 3:1, 1:1, and 1:3, then embedded in pure Epon-812 resin. Ultrathin sections (60–90 nm) were cut and placed on copper grids. The sections were stained with saturated uranyl acetate for 10–15 min, followed by lead citrate for 1–2 min. Structural and morphological changes in the bacterial cells were observed using a JEOL JEM-1400FLASH transmission electron microscope (JEOL, Japan).
We first evaluated the impact of AA, MA, and UA on septum formation in MRSA-4 cells using TEM. MRSA-4 cultures were treated with AA, MA, or UA at 1 × MIC for 4 h, with PBS-treated cells serving as the control. […] These abnormalities imply that AA, MA, and UA disrupt the septum formation process, which is essential for successful cell division.

[3] = MRSA-4, ≥ 90% growth inhibition, 18–24 h, read-out: MIC

SMILES: C[C@H]1[C@H](C)CC[C@]2(C(=O)O)CC[C@]3(C)C(=CC[C@@H]4[C@@]5(C)C[C@@H](O)[C@H](O)[C@@](C)(CO)[C@@H]5CC[C@]43C)[C@H]12 [AA, asiatic acid]
- length of long axis of cells (S. aureus ATCC25923): 0.78 ± 0.06 μm
- MIC (MRSA-4 [1]; [3]): 32 µg/mL (≈ 65.5 µM)
- septum formation (TEM) (MRSA-4 [2]): incomplete, mislocalized, or absent septa

SMILES: CC1(C)CC[C@]2(C(=O)O)CC[C@]3(C)C(=CC[C@@H]4[C@@]5(C)C[C@@H](O)[C@H](O)C(C)(C)[C@@H]5CC[C@]43C)[C@@H]2C1 [MA, maslinic acid]
- length of long axis of cells (S. aureus ATCC25923): 0.78 ± 0.07 μm
- MIC (MRSA-4 [1]; MRSA): 32 µg/mL (≈ 67.7 µM)
- septum formation (TEM) (MRSA-4 [2]): incomplete, mislocalized, or absent septa

SMILES: C[C@H]1[C@H](C)CC[C@]2(C(=O)O)CC[C@]3(C)C(=CC[C@@H]4[C@@]5(C)CC[C@H](O)C(C)(C)[C@@H]5CC[C@]43C)[C@H]12 [UA, ursolic acid]
- length of long axis of cells (S. aureus ATCC25923): 0.75 ± 0.05 μm
- MIC (MRSA-4 [1]; [3]): 8 µg/mL (≈ 17.5 µM)
- septum formation (TEM) (MRSA-4 [2]): incomplete, mislocalized, or absent septa
